# In patent US20240294499A1, “TARGETED PROTEIN DEGRADATION USING BIFUNCTIONAL COMPOUNDS THAT BIND UBIQUITIN LIGASE AND TARGET MCL-1 PROTEIN” (Captor Therapeutics S.A., priority 2021, published 2024):
# How the values were obtained:
# [1] = biological target: MCL-1 protein (Homo sapiens, UniProt Q07820); test: OPM-2 cells: MCL-1 protein degradation, Simple Western; type: cell-based; set-up: endogenous in cells; host or cells: OPM-2; conditions: OPM-2 cell line, 6 h treatment, 100 nM compound, vs DMSO
# Source text: The effect of various compounds of the invention and the reference compounds on MCL-1protein degradation in the OPM-2 cell line was investigated, using the degradation assay protocol below.
# OPM-2 cells were maintained in RPMI-1640 medium, supplemented with penicillin/streptomycin and 10% Fetal Bovine Serum (FBS). During the treatment, FBS concentration was reduced to 1%.
# Compound stocks were pre-diluted in DMSO and added directly to the cells growth medium (final DMSO concentration: 0.5%).
# OPM-2 cells were collected, centrifuged (250 rcf, 5 min), resuspended in a growth medium containing 1% FBS and counted. The cell suspension was then adjusted to 1×10^6 cell/ml using a growth medium containing 1% FBS. Afterwards, 0.5×10^6 cells were seeded on 24-well plates in 0.5 mL of medium per well. Immediately after seeding cells, compounds in appropriate concentrations were added to the cell culture medium.
# Following the treatment with the compounds, cells were collected from the plates and suspended in a lysis buffer (2% SDS, 50 mM Tris, pH 8.0, 100 U/ml Pierce Universal Nuclease for Cell Lysis, cOmplete EDTA-free Protease Inhibitor Cocktail) and incubated on ice for 45 min.
# The following steps, including sample loading, protein separation, immunoprobing or labelling, washes and detection analysis was performed using Jess from ProteinSimple, an automatic system for analyzing protein levels in cell lysates (12-230 kDa Jess or Wes separation module 8×25 capillaries, protein normalization assay, no. SM-PN01-1). The Protein of Interest was detected using MCL-1 (D35A5) Rabbit monoclonal antibody (Cell Signaling, #5453, LOT: 4). Antibody was diluted in a ratio of 1:100 in Antibody diluent.
# [%] of protein reduction is calculated in comparison to the cells treated with DMSO, which stand for 0%.
# The results for the 6 h treatment with 100 nM compounds are shown in Table 9, using the following labels: • <20% for 0-19% of MCL-1 protein reduction, • ≥20% for 20-39% of MCL-1 protein reduction, • ≥40% for 40-100% of MCL-1 protein reduction.
# [2] = tested on: ARH-77 cells; test: Cell viability assay (CellTiter-Glo), ARH-77; type: cell-based; conditions: Homo sapiens, ARH-77, 24 hours incubation, 1% FBS, read-out: Average pIC50 by molecule ARH-77 (converted)
# How it was run: (§1)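 Luminescent ATP readout (CellTiter-Glo) at 24 hours measured viability, expressed relative to DMSO-treated wells. Compound was added directly to the medium as a 9–12-point threefold series starting at 30 uM, at 0.5% final DMSO. The medium contained FBS reduced to 1%.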
# [3] = tested on: DMS 114 cells; test: Cell viability assay (CellTiter-Glo), DMS 114; type: cell-based; conditions: Homo sapiens, DMS-114, 72 h, 72 hours incubation, 10% FBS, read-out: Average pIC50 by molecule DMS 114 (converted)
# Source text: The effect of various compounds of the invention on the viability of DMS 114 cell line was investigated, using the CTG protocol described below.
# DMS 114 cell line is derived from small-cell lung cancer, which is described in the literature as MCL-1 dependent lines [Yasuda Y et al. Cell Death & Disease 2020; 11: 177].
# DMS 114 cells were detached with trypsin and then resuspended in growth medium containing 10% FBS and counted. Cell suspension was then adjusted to 5×10^4 cells/ml using growth medium containing 10% FBS. Afterwards, […] were seeded on 384-well plates (50 μl). Plates were then placed in the incubator overnight until treated. Next day, compounds were added using ECHO 555 liquid handler. Compound concentrations used in this assay: 1/3 dilutions starting at 30 uM (9 to 12 points).
# After 72 hours of incubation, cell viability was evaluated using CellTiter-Glo Luminescent Cell Viability Assay (Promega, cat #G7572). Luminescence signal was measured using a CLARIOstar Plus Multi-Mode Microplate Reader (574-590 nm).
# [4] = tested on: MV-4-11 cells; test: Cell viability assay (CellTiter-Glo), MV-4-11; type: cell-based; conditions: Homo sapiens, MV4-11, 24 hours incubation, 1% FBS, read-out: Average pIC50 by molecule MV-4-11 (converted)
# How it was run: as §1
# [5] = biological target: [MCL-1]-[compound of formula (I)]-[CRBN/DDB1] complex (Homo sapiens, UniProt Q07820+Q96SW2); test: AlphaLISA dose response ternary complex formation assay; type: binding; conditions: read-out: AlphaLISA dose response Average pEC50 by molecule (converted)
# How it was run: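 EC50 comes from dose–response of AlphaLISA luminescence (excitation 680, emission 615 nm), normalised between DMSO background and an internal positive control, with concentrations past the hook point dropped. Ternary complex formed by mixing bead-bound biotin-hMCL-1 and His-CRBN/DDB1 (protein solutions 40 and 200 nM) with compound in 2% DMSO, 30 min, 25 °C.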
# Sequence of MCL-1 protein (Q07820 whole entry): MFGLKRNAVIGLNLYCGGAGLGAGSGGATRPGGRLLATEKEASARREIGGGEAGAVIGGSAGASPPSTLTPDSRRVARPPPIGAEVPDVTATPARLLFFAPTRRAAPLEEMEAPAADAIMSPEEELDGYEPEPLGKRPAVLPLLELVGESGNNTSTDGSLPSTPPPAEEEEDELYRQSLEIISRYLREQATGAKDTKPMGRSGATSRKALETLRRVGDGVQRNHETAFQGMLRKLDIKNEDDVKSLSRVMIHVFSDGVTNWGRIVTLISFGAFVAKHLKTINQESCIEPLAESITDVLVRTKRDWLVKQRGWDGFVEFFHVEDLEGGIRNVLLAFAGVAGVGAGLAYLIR
# Sequence of [MCL-1]-[compound of formula (I)]-[CRBN/DDB1] complex (Q07820 whole entry): as above
# Sequence of [MCL-1]-[compound of formula (I)]-[CRBN/DDB1] complex (Q96SW2 whole entry): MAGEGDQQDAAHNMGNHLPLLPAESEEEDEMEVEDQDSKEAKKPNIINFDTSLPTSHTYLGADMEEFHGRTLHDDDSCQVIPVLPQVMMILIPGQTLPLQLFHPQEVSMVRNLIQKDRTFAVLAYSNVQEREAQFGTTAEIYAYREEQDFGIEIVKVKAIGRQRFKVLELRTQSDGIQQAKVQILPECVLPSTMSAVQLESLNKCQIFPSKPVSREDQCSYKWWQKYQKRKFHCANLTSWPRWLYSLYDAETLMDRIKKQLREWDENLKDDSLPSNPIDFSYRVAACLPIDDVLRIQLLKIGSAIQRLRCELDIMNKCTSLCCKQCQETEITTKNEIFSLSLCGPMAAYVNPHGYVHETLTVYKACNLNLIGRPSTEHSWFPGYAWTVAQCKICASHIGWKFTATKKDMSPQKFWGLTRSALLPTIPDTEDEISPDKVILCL
# Sequence of [MCL-1]-[compound of formula (I)]-[CRBN/DDB1] complex (Q16531 whole entry partner): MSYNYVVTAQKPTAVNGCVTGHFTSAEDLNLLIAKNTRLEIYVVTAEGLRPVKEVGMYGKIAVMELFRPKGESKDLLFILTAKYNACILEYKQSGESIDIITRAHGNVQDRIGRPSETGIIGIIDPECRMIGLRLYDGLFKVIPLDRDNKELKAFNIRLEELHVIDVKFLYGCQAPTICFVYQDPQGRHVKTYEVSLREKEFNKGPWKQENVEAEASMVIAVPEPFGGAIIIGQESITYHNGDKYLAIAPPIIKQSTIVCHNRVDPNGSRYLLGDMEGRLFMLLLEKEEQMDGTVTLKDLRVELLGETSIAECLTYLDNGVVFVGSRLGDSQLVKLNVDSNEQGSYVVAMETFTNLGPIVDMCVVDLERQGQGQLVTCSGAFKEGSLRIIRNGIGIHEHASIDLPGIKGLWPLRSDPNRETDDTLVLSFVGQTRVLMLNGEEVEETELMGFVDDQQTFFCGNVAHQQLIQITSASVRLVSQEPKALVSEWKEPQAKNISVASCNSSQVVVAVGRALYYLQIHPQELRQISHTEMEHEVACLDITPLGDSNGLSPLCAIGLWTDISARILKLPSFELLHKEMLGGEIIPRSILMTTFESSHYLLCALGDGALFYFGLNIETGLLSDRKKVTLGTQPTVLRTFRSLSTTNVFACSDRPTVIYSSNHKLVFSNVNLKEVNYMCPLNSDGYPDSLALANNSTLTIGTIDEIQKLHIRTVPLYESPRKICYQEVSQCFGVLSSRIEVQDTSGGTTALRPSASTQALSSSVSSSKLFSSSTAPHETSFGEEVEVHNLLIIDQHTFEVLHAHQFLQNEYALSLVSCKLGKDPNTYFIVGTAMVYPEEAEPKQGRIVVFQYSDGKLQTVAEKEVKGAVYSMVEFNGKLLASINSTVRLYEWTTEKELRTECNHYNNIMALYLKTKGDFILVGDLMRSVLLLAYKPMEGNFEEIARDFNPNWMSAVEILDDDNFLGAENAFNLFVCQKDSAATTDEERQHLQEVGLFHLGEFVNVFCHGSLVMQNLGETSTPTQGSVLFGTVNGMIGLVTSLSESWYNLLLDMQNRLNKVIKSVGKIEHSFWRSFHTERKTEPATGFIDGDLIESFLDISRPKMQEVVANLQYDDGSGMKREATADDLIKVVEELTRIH
Structure (SMILES),"Simple Western, % of protein reduction [1]",IC50 [2],IC50 [3],IC50 [4],EC50 [5]
"Cc1c(-c2c(-c3ccc(F)o3)sc3ncnc(O[C@H](Cc4ccccc4OCc4ccnn4CC(F)(F)F)C(=O)NS(=O)(=O)CCNC(=O)CCOCCOCCNc4cccc5c4C(=O)N(C4CCC(=O)NC4=O)C5=O)c23)ccc(OCCN2CCN(C)CC2)c1Cl (stereo partly drawn) [Compound 260, (2R)-2-[(5-{3-chloro-2-methyl-4-[2-(4-methylpiperazin-1-yl)ethoxy]phenyl}-6-(5-fluorofuran-2-yl)thieno[2,3-d]pyrimidin-4-yl)oxy]-N-(2-{3-[2-(2-{[2-(2,6-dioxopiperidin-3-yl)-1,3-dioxo-2,3-dihydro-1H-isoindol-4-yl]amino}ethoxy)ethoxy]propanamido}ethanesulfonyl)-3-(2-{[1-(2,2,2-trifluoroethyl)-1H-pyrazol-5-yl]methoxy}phenyl)propanamide]",≥20%,,,,
"Cc1nn(C)c(C)c1-c1c(Cl)ccc2c(CCCOc3cccc4cc(F)ccc34)c(C(=O)O)n(CC[N+]3([O-])CCN(C(=O)COc4cccc5c4CN(C4CCC(=O)NC4=O)C5=O)CC3)c12 (stereo not shown) [Compound 298, 1-(2-(2-Carboxy-6-chloro-3-(3-((6-fluoronaphthalen-1-yl)oxy)propyl)-7-(1,3,5-trimethyl-1H-pyrazol-4-yl)-1H-indol-1-yl)ethyl)-4-(2-((2-(2,6-dioxopiperidin-3-yl)-1-oxoisoindolin-4-yl)oxy)acetyl)piperazine 1-oxide]",,> 10000 nM,≤ 1000 nM,≤ 100 nM,< 10 nM
"COc1cc(C(=O)NC2CCC(=O)NC2=O)c2nc(C)n(CC(=O)N3CCN(CCn4c(C(=O)O)c(CCCOc5cccc6cc(F)ccc56)c5ccc(Cl)c(-c6c(C)nn(C)c6C)c54)CC3)c2c1 (stereo not shown) [Compound 277, 6-Chloro-1-{2-[4-(2-{4-[(2,6-dioxopiperidin-3-yl)carbamoyl]-6-methoxy-2-methyl-1H-1,3-benzodiazol-1-yl}acetyl)piperazin-1-yl]ethyl}-3-{3-[(6-fluoronaphthalen-1-yl)oxy]propyl}-7-(1,3,5-trimethyl-1H-pyrazol-4-yl)-1H-indole-2-carboxylic acid]",,> 10000 nM,≤ 3160 nM,≤ 100 nM,< 100 nM
"Cc1nn(C)c(C)c1-c1c(Cl)ccc2c(CCCOc3cccc4cc(F)ccc34)c(C(=O)O)n(CCN3CCN(C(=O)[C@H](C)Oc4cccc5c4C(=O)N([C@H]4CCC(=O)NC4=O)C5=O)CC3)c12 (single isomer, unassigned) [Compound 319]",,> 10000 nM,≤ 3160 nM,≤ 31.6 nM,< 100 nM
"Cc1nn(C)c(COc2ccc(N3CCN(S(=O)(=O)N(C)C)CC3)cc2)c1-c1cccc2c(CCCOc3cccc4ccccc34)c(C(=O)O)n(CCN3CCN(C(=O)COc4cccc5c4CN(C4CCC(=O)NC4=O)C5=O)CC3)c12 (stereo not shown) [Compound 249, 7-(5-((4-(4-(N,N-dimethylsulfamoyl)piperazin-1-yl)phenoxy)methyl)-1,3-dimethyl-1H-pyrazol-4-yl)-1-(2-(4-(2-((2-(2,6-dioxopiperidin-3-yl)-1-oxoisoindolin-4-yl)oxy)acetyl)piperazin-1-yl)ethyl)-3-(3-(naphthalen-1-yloxy)propyl)-1H-indole-2-carboxylic acid]",≥20%,,,≤ 1000 nM,< 100 nM
"Cc1nn(C)c(C)c1-c1c(Cl)ccc2c(CCCOc3cccc4cc(F)ccc34)c(C(=O)O)n(CCN3CCN(C(=O)COc4c(F)ccc5c4CN(C4CCC(=O)NC4=O)C5=O)CC3)c12 (stereo not shown) [Compound 342, 6-Chloro-1-(2-(4-(2-((2-(2,6-dioxopiperidin-3-yl)-5-fluoro-1-oxoisoindolin-4-yl)oxy)acetyl)piperazin-1-yl)ethyl)-3-(3-((6-fluoronaphthalen-1-yl)oxy)propyl)-7-(1,3,5-trimethyl-1H-pyrazol-4-yl)-1H-indole-2-carboxylic acid]",,> 10000 nM,≤ 1000 nM,≤ 31.6 nM,< 100 nM
"Cc1nc2c(C(=O)NC3CCC(=O)NC3=O)c(OCC(=O)N3CCN(CCn4c(C(=O)O)c(CCCOc5cccc6ccccc56)c5ccc(Cl)c(-c6c(C)nn(C)c6C)c54)CC3)ccc2[nH]1 (stereo not shown) [Compound 264, 6-chloro-1-(2-(4-(2-((4-((2,6-dioxopiperidin-3-yl)carbamoyl)-2-methyl-1H-benzo[d]imidazol-5-yl)oxy)acetyl)piperazin-1-yl)ethyl)-3-(3-(naphthalen-1-yloxy)propyl)-7-(1,3,5-trimethyl-1H-pyrazol-4-yl)-1H-indole-2-carboxylic acid]",≥20%,,,,
"Cc1nn(C)c(C)c1-c1c(Cl)ccc2c(CCCOc3cccc4cc(F)ccc34)c(C(=O)O)n(CCN3CCN(C(=O)Cn4c(C)nc5c(C(=O)NC6CCC(=O)NC6=O)cc(F)cc54)CC3)c12 (stereo not shown) [Compound 278, 6-Chloro-1-{2-[4-(2-{4-[(2,6-dioxopiperidin-3-yl)carbamoyl]-6-fluoro-2-methyl-1H-1,3-benzodiazol-1-yl}acetyl)piperazin-1-yl]ethyl}-3-{3-[(6-fluoronaphthalen-1-yl)oxy]propyl}-7-(1,3,5-trimethyl-1H-pyrazol-4-yl)-1H-indole-2-carboxylic acid]",,> 10000 nM,≤ 3160 nM,≤ 100 nM,< 100 nM
"Cc1nn(C)c(COc2ccc(N3CCN(S(=O)(=O)N(C)C)CC3)cc2)c1-c1cccc2c(CCCOc3cccc4ccccc34)c(C(=O)O)n(CCN3CCN(C(=O)CNc4cccc5c4C(=O)N(C4CCC(=O)NC4=O)C5=O)CC3)c12 (stereo not shown) [Compound 245, 7-(5-((4-(4-(N,N-dimethylsulfamoyl)piperazin-1-yl)phenoxy)methyl)-1,3-dimethyl-1H-pyrazol-4-yl)-1-(2-(4-((2-(2,6-dioxopiperidin-3-yl)-1,3-dioxoisoindolin-4-yl)glycyl)piperazin-1-yl)ethyl)-3-(3-(naphthalen-1-yloxy)propyl)-1H-indole-2-carboxylic acid]",≥20%,,,,< 1000 nM
"Cc1ccc2c(CCCOc3cccc4ccccc34)c(C(=O)O)n(CCN3CCN(C(=O)COc4cccc5c4C(=O)N(C4CCC(=O)NC4=O)C5=O)CC3)c2c1-c1c(C)nn(C)c1C (stereo not shown) [Compound 217, 1-(2-(4-(2-((2-(2,6-dioxopiperidin-3-yl)-1,3-dioxoisoindolin-4-yl)oxy)acetyl)piperazin-1-yl)ethyl)-6-methyl-3-(3-(naphthalen-1-yloxy)propyl)-7-(1,3,5-trimethyl-1H-pyrazol-4-yl)-1H-indole-2-carboxylic acid]",≥40%,,,≤ 1000 nM,< 100 nM
"Cc1nn(C)c(C)c1-c1c(F)ccc2c(CCCOc3cccc4ccccc34)c(C(=O)O)n(CCN3CCN(C(=O)COc4cccc5c4C(=O)N(C4CCC(=O)NC4=O)C5=O)CC3)c12 (stereo not shown) [Compound 213, 1-{2-[4-(2-{[2-(2,6-dioxopiperidin-3-yl)-1,3-dioxo-2,3-dihydro-1H-isoindol-4-yl]oxy}acetyl)piperazin-1-yl]ethyl}-6-fluoro-3-[3-(naphthalen-1-yloxy)propyl]-7-(1,3,5-trimethyl-1H-pyrazol-4-yl)-1H-indole-2-carboxylic acid]",≥40%,> 10000 nM,,≤ 316 nM,< 100 nM
